Reference: patent US11806352B2, “Theobromine for increasing HDL-cholesterol” (UPFIELD EUROPE B.V., priority 2010, dated 2023)
Where “and” joins values, the source holds several entries; their conditions need not be identical. Equal values may be shown once.

Key:
[1] = tested on: healthy males and females; assay: Example 2: same intervention study, blood pressure; type: in vivo, humans
Method: In a randomized controlled intervention study with 153 healthy males and females the effect of drinks containing cocoa, added theobromine or a combination of cocoa and added theobromine was assessed on HDL cholesterol (HDL-C). As a secondary objective the effect of the various drinks on total cholesterol (TC), LDL cholesterol (LDL-C), Triglycerides (TG) and blood pressure (BP) was assessed.
After a run-in period of 2 weeks the subjects consumed for 4 weeks daily (in the morning one hour before breakfast) 200 ml acidified dairy drink as in table 5, with added to that 1) none (control drink), 2) 5.9 g cocoa powder (Acticoa, Barry-Callebaut) containing about 500 mg polyphenols and 150 mg theobromine 3) about 850 mg synthetic theobromine (Fagron) and 4) 5.9 g cocoa powder containing 500 mg polyphenols and 150 mg theobromine plus added thereto about 850 mg synthetic theobromine (Fagron) (in total about 1 g theobromine). The synthetic theobromine used was: theobromine complying with European Pharmacopeia 5.7, as available from Fagron, Waregem, Belgium.
Inclusion criteria: generally healthy men and pre-menopausal women, age 40-70, with a 10-year risk of developing CHD<10%, not on active cholesterol-lowering or anti-hypertensive treatment and non-smoking. Details of the subject characteristics are set out in table 6.
The statistical analysis was done according to a full 2×2 factorial design including interaction of theobromine and cocoa. Gender within treatment and baseline blood lipids were included in the model as covariates. A 2 sided p-value<0.05 was considered significant.

[2] = tested on: healthy males and females; assay: Example 2: randomized placebo-controlled 2 by 2 factorial parallel study, dairy drinks, blood lipid profile; type: in vivo, humans
Method: In a randomized controlled intervention study with 153 healthy males and females the effect of drinks containing cocoa, added theobromine or a combination of cocoa and added theobromine was assessed on HDL cholesterol (HDL-C). As a secondary objective the effect of the various drinks on total cholesterol (TC), LDL cholesterol (LDL-C), Triglycerides (TG) and blood pressure (BP) was assessed. […] After a run-in period of 2 weeks the subjects consumed for 4 weeks daily (in the morning one hour before breakfast) 200 ml acidified dairy drink as in table 5, with added to that 1) none (control drink), 2) 5.9 g cocoa powder (Acticoa, Barry-Callebaut) containing about 500 mg polyphenols and 150 mg theobromine 3) about 850 mg synthetic theobromine (Fagron) and 4) 5.9 g cocoa powder containing 500 mg polyphenols and 150 mg theobromine plus added thereto about 850 mg synthetic theobromine (Fagron) (in total about 1 g theobromine). The synthetic theobromine used was: theobromine complying with European Pharmacopeia 5.7, as available from […], Belgium. For preparing the test products containing theobromine, theobromine was dissolved in a 1 M NaOH solution to create a theobromine stock solution, containing approximately 170 mg/ml of thebromine. The various drinks used in the trial have been made using the following processing: • mixing of the pectin with all of the sugar • dispersing the pectin/sugar mix with part of the demi water at 80° C. to prepare a pectin slurry • dissolving smp in the remainder of the demi water at a temperature of 40° C. • adding the cream • adding the xanthan gum under vigorous mixing for 15 minutes • adding the pectin slurry • adding sucralose • (depending on the drink: adding the cacao slowly under vigorous mixing) • (depending on the drink: adding the theobromine solution) • adding the sunflower oil • adding the flavours and colorants • acidifying the premix with lactic acid until pH 4.2 Inclusion criteria: generally healthy men and pre-menopausal women, age 40-70, with a 10-year risk of developing CHD<10%, not on active cholesterol-lowering or anti-hypertensive treatment and non-smoking. Details of the subject characteristics are set out in table 6. Venous blood samples were drawn from the antecubital vein in SST II advance BD tubes in fasting condition (morning, before breakfast) for blood lipid profile (HDL-C, LDL-C, total cholesterol (TC), triglycerides, HDL-C being herein high density lipoprotein cholesterol, and LDL-C herein being low density lipoprotein cholesterol). The blood samples were taken twice at baseline and were repeated twice after the end of the intervention period. All measurements were done with standard laboratory techniques. Serum lipid outcomes were done in the Intention to treat (ITT) and Per Protocol (PP) population. The statistical analysis was done according to a full 2×2 factorial design including interaction of theobromine and cocoa. Gender within treatment and baseline blood lipids were included in the model as covariates. A 2 sided p-value<0.05 was considered significant.

[3] = tested on: Wistar rats; conditions: 700 mg/kg body weight; cited from earlier work
[4] = tested on: Wistar rats; conditions: rats fed a diet supplemented with 0.3% of theobromine; cited from earlier work
[5] = pair-wise comparison, treatment A = Placebo, 4 weeks
[6] = after 4 weeks, ITT, baseline ratio and gender as covariables
[7] = fasting blood, after 4 weeks daily 200 ml drink, ITT, baseline and gender as covariables

Cn1cnc2c1c(=O)[nH]c(=O)n2C [Theobromine, 2,6-dihydroxy-3,7-dimethylpurine]
effect on blood pressure ([1]; 4 weeks, vs control): no significant effect
DBP, Mean ([1]; after 4 weeks, ITT, baseline DBP and gender as covariables): 75.0 mm Hg
SBP, Mean ([1]; after 4 weeks, ITT, baseline SBP and gender as covariables): 121.2 mm Hg
DBP, Change (A − B) [1, 5]: −0.20 mm Hg
SBP, Change (A − B) [1, 5]: 2.55 mm Hg
HDL-C increase compared to placebo ([2]; 4 weeks): ~10%
Serum LDL-C decrease compared to placebo ([2]; 4 weeks): about 5%
Serum LDL-C decrease ([2]; 4 weeks, compared to placebo): 0.18 mmol/L
increase in ApoA1 concentrations ([2]; 4 weeks, main apoprotein found in HDL particles): 0.11
Triglyceride, Mean ([2]; after 4 weeks, ITT, baseline and gender as covariables): 1.05 mmol/L
HDL-C/LDL-C ratio, Mean [2, 6]: 0.52
HDL-C/non-HDL-C ratio, Mean [2, 6]: 0.43
Total cholesterol, Mean ([2]; fasting blood, after 4 weeks daily 200 ml drink, ITT n=143, baseline and gender as covariables): 5.82 mmol/L
HDL-C, Mean [2, 7]: 1.75 mmol/L
LDL-C, Mean [2, 7]: 3.30 mmol/L
HDL-C, Change (A − B) [2, 5]: 0.159 mmol/L
HDL-C/LDL_c ratio, Change (A − B) [2, 5]: 0.12 and 0.117
HDL-C/non-HDL-C ratio, Change (A − B) [2, 5]: 0.13 and 0.126
LDL-C, Change (A − B) [2, 5]: -0.184 mmol/L
Total cholesterol, Change (A − B) [2, 5]: -0.038 mmol/L
Triglycerides, Change (A − B) [2, 5]: 0.018 mmol/L
HDL-C, Change (A − B) ([2]; pair-wise comparison, treatment A = Placebo, 4 weeks, listed as theobromine): 0.16 mmol/L
HDL-cholesterol [3]: elevated
LDL-cholesterol [3]: decreased
total cholesterol [3]: decreased
triglycerides [3]: decreased
Serum total cholesterol [4]: significantly increased
